Reference: patent publication US10617660B2, “Compositions containing benzoate compound and tannic acid for treating central nervous system disorders” (SyneuRx International (Taiwan) Corp., priority 2016, dated 2020)
Entries after “also recorded” stand apart in the source; their conditions may differ.

Tests used:
[1] = tested on: MK801-treated mice; experiment: Open field test of spontaneous locomotor activity (MK801-induced hyper-locomotion); assay type: in vivo; conditions: for effect on MK801-induced hyperactivity (total distance traveled in open field test): oral gavage, cohort 1, FIG. 2
Procedure: (§1) C57BL/6J male mice were group housed (3-5 mice per cage) with food and water available ad libitum in polysulfone ventilated cages (Alternative Design, AR, USA) in the animal rooms. The colony was maintained on a 12/12-h light/dark cycle at the temperature of 22±2° C. and all behavioral studies will be performed during the dark cycle. All animals used in this study were adult mice (at least 2.5 months of age).
The mice were randomly assigned into six groups listed below:
Group 3: Sodium benzoate (1000 mg/kg)+MK801
Group 4: Sodium benzoate (200 mg/kg)+MK801 […]
Group 6: Sodium benzoate (200 mg/kg)+Tannic Acid (60 mg/kg)+MK801.
Each mouse in Groups 2-6 received an acute administration of MK801 dissolved in normal saline (0.1 mg/kg, i.p.) 20 minutes prior to the behavioral tests. […]
(§2) All mice of cohort 1 in this study were assessed with open field test as described herein. The mice of cohorts 2 and 3 in this study were assessed with prepulse inhibition test as described herein.
The open field test is a common measurement of novelty induced exploratory behavior and general activity in both mice and rats. In this study, mice were placed in a Plexiglas cage (37.5 cm×21.5 cm×18 cm) under 50-65 lux light intensity. Their spontaneous locomotor activities were measured for 60 minutes using the EthoVision video tracking system (Noldus Information Technology, the Netherlands). The travel distance of each mouse was measured as an index of locomotion activity. It generates hyperactivity which is frequently applied as animal models including, but not limited to, schizophrenia, bipolar disorder, attention-deficit hyperactivity disorder, obsessive compulsive disorder, Tourette's syndrome, autism spectrum disorders, Fragile X syndrome, Parkinson's disease, dementia with Lewy bodies, and senile dementia (see Rubia et al., 2010; Sheppard and Bradshaw, 1999; Bent et al., 2014; Powell and Miyakawa, 2006; Nestler and Hyman, 2010; Bubeni{acute over ( )}kova{acute over ( )}-Vales{hacek over ( )}ova et al., 2008; Gobira et al., 2013; Lai et al., 2014; Maio et al., 2014; Sontag et al., 2010; Ding et al., 2014; Walitza et al., 2007; Finestone et al., 1982; Golimstok et al., 2011).

[2] = tested on: MK801-treated mice; experiment: Prepulse inhibition test of sensorimotor gating function (MK801-disrupted PPI); assay type: in vivo
Procedure: as §1
The mice were randomly assigned into ten groups listed below:
Group 9: Sodium benzoate (1000 mg/kg)+MK801
Group 10: Sodium benzoate (200 mg/kg)+MK801
Group 11: Sodium benzoate (600 mg/kg)+MK801
Group 12: Sodium benzoate (200 mg/kg)+Tannic Acid (30 mg/kg)+MK801
Group 13: Sodium benzoate (200 mg/kg)+Tannic Acid (60 mg/kg)+MK801
Group 14: Sodium benzoate (600 mg/kg)+Tannic Acid (10 mg/kg)+MK801
Group 15: Sodium benzoate (600 mg/kg)+Tannic Acid (30 mg/kg)+MK801
Group 16: Sodium benzoate (600 mg/kg)+Tannic Acid (60 mg/kg)+MK801.
Each mouse in Groups 8-16 received an acute administration of MK801 dissolved in normal saline (0.1 mg/kg, i.p.) 20 minutes prior to the behavioral tests. Each mouse in Groups 9-16 received an acute administration of sodium benzoate or sodium benzoate in combination with tannic acid (dissolved in PBS, 10, 30 or 60 mg/kg) via oral gavage 20 minutes prior to the MK801 administration.
The mice were randomly assigned into five groups listed below:
Group 19: Tannic acid_10 mg/kg+MK801
Group 20: Tannic acid_30 mg/kg+MK801
Each mouse in Groups 18-21 received an acute administration of MK-801 (a NMDA receptor antagonist, dissolved in normal saline (0.1 mg/kg, i.p.) 20 minutes prior to behavioral tests. On the other hand, each mouse in Groups 19-21 received an acute administration of tannic acid (dissolved in 30% PEG400 in PBS, 10, 30 or 100 mg/kg) via oral gavage 20 minutes prior to the MK801 administration.
as §2
Prepulse inhibition was used as an index of sensorimotor gating function using SR-LAB startle apparatus (San Diego Instruments, San Diego, Calif., USA). The startle stimulus was a 40 ms, 120 dB white noise burst. In the pre-pulse (pp)+pulse trials, a 20 ms white noise pre-pulse stimuli of 82 dB (pp10) or 90 dB (pp18) was presented 100 ms before a 40 ms 120 dB pulse. The trials were presented pseudo-randomly and separated by inter-trial interval of 15 s on average (varying between 10 to 20 s) under 72 dB background noise. The percentage of pre-pulse inhibition was evaluated by the following formula: % PPI=100×[(PA score)−(pp-P score)]/(PA score), where the PA score was the average of the PA value in the middle blocks.

[3] = MK801 0.1 mg/kg i.p., 20 minutes prior to test, model-inducing agent

In the case of `C[C@]12N[C@H](Cc3ccccc31)c1ccccc12` [MK801], the “effect on locomotion (total distance traveled in open field test)” value [1, 3] is reported as “induced hyperactivity” and the “effect on prepulse inhibition” value [2, 3] is reported as “impairs prepulse inhibition”.
With `O=C([O-])c1ccccc1.[Na+]` [sodium benzoate] the “effect on MK801-induced hyperactivity (total distance traveled in open field test)” value ([1]; sodium benzoate 200 mg/kg alone, MK801 0.1 mg/kg i.p.) was “less effective”, the “effect on MK801-induced hyperactivity (total distance traveled in open field test)” value ([1]; sodium benzoate 1000 mg/kg alone, MK801 0.1 mg/kg i.p.) was “rescued/protected mice from MK801 induced hyper-locomotion more than 200 mg/kg; also recorded: completely prevented” and the “effect on rescuing MK801-disrupted PPI” value ([2]; sodium benzoate alone 200 mg/kg or 600 mg/kg, oral gavage, cohort 2, prepulse 82 dB and 90 dB) was “did not show much effects”. For the same compound, the “effect on MK801-impaired prepulse inhibition (percentage of pre-pulse inhibition)” value ([2]; sodium benzoate alone at 200, 600 or 1000 mg/kg, FIG. 3 legend) was “can be improved”.
`O=C(OC[C@H]1O[C@@H](OC(=O)c2cc(O)c(O)c(OC(=O)c3cc(O)c(O)c(O)c3)c2)[C@H](OC(=O)c2cc(O)c(O)c(OC(=O)c3cc(O)c(O)c(O)c3)c2)[C@@H](OC(=O)c2cc(O)c(O)c(OC(=O)c3cc(O)c(O)c(O)c3)c2)[C@@H]1OC(=O)c1cc(O)c(O)c(OC(=O)c2cc(O)c(O)c(O)c2)c1)c1cc(O)c(O)c(OC(=O)c2cc(O)c(O)c(O)c2)c1` [tannic acid] was tested, and the “effect on rescuing MK801-induced hyper-locomotion” value ([1]; tannic acid alone, dose not given) was “little or no effect” and the “effect on MK801-disrupted PPI” value ([2]; tannic acid alone 10, 30, 100 mg/kg, oral gavage, MK801 0.1 mg/kg i.p., cohort 3, prepulse 82 dB and 90 dB, FIG. 4) was “little or no effects; also recorded: little or no improvement; also recorded: little or no impact”.
